Measurements as given in ChEMBL document CHEMBL5346977, “Discovery of Novel d-(+)-Biotin-Conjugated Resorcinol Dibenzyl Ether-Based PD-L1 Inhibitors for Targeted Cancer Immunotherapy” (J Med Chem, 2023).
Activity calls are given as the source filed them. The rule behind the calls is not given here.

How the values were obtained:
[1] = molecular target: Programmed cell death 1 ligand 1 (Homo sapiens, UniProt Q9NZQ7); experiment: Binding affinity to human PD-L1 assessed as dissociation constant by SPR analysis
Programmed cell death 1 ligand 1 (Homo sapiens, UniProt Q9NZQ7), sequence (Q9NZQ7 whole entry): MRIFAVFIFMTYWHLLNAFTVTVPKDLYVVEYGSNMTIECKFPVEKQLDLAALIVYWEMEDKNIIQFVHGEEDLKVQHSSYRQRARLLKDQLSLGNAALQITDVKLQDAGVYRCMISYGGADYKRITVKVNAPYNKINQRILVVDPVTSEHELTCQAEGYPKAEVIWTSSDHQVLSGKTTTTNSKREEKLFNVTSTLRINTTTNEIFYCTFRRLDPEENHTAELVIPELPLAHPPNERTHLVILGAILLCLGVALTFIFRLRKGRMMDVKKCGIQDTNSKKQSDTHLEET

[2] = molecular target: T1, Programmed cell death 1 ligand 1 (Mus musculus, UniProt Q9EP73); experiment: Binding affinity to mouse PD-L1 assessed as dissociation constant by SPR analysis
T1 sequence (Q9EP73 whole entry): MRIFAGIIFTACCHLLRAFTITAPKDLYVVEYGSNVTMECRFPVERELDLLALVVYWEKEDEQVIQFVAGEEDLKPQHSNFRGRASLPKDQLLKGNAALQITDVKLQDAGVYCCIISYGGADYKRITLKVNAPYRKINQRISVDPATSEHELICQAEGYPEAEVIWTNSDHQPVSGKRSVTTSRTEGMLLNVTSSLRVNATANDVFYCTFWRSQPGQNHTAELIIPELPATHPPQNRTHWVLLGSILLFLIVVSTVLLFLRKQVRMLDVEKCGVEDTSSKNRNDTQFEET

[3] = molecular target: T1, Programmed cell death 1 ligand 1; experiment: Binding affinity to mouse PD-L1 assessed as dissociation constant by MST analysis
HepG2 = experiment: Antitumor immunity activity against human HepG2 cells expressing human PD-L1 co-cultured with human Jurkat T cells expressing human PD-1 assessed as reduction in cell viability at 10 uM incubated for 48 hrs by CCK8 assay relative to control; type: functional
[4] = molecular target: Programmed cell death protein 1/Programmed cell death 1 ligand 1 (Homo sapiens, UniProt Q9NZQ7); experiment: Inhibition of interaction of PD-1 (unknown origin) expressed in Jurkat T cells carrying luciferase reporter under the control of NFAT promoter/PD-L1 (unknown origin) expressed in CHO cells co-expressing TCR ligand and T-cell surrogate pretreated with CHO cells for 0.5 hrs followed by Jurkat T cell addition and measured after 5 hrs by luminescence based analysis
Programmed cell death protein 1/Programmed cell death 1 ligand 1, sequence (Q15116 whole entry): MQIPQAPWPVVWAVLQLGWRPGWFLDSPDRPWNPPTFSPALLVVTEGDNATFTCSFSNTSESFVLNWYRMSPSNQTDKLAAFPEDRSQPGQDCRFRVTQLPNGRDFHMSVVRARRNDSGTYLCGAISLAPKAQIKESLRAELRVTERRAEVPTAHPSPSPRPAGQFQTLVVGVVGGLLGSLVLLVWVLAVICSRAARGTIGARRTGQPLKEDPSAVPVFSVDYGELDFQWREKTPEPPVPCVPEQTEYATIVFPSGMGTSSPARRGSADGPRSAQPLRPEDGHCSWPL
Programmed cell death protein 1/Programmed cell death 1 ligand 1, sequence (Q9NZQ7 whole entry): as the sequence (Q9NZQ7 whole entry) above

[5] = Apparent volume of distribution in Sprague-Dawley rat at 1 mg/kg, iv administered as single dose and measured after 48 hrs by HPLC-MS/MS analysis; type: ADME, organism-based; settings: in vivo, read-out: Vz
B16-F10 [6] = experiment: Antitumor activity against mouse B16-F10 cells implanted in BALB/c mouse assessed as reduction in tumor weight at 50 mg/kg, ip administered once daily for 14 days relative to control; type: functional; design: scale not given: the % may be the effect or the level left; settings: time 14 day
[7] = Toxicity in […] with mouse B16-F10 cells assessed as effect on body weight at 50 mg/kg, ip administered once daily for 14 days; type: organism-based; settings: in vivo, 336 h, time 14 day
[8] = Drug concentration in spleen of C57BL/6 mouse implanted with mouse B16-F10 cells at 50 mg/kg, ip measured after 1 hrs by UPLC-MS/MS analysis; type: ADME, organism-based; settings: read-out: Ct
[9] = Drug concentration in tumor of C57BL/6 mouse implanted with mouse B16-F10 cells at 50 mg/kg, ip measured after 2 hrs by UPLC-MS/MS analysis; type: ADME, organism-based, Neoplasm; settings: read-out: Ct
[10] = Drug concentration in lung of C57BL/6 mouse implanted with mouse B16-F10 cells at 50 mg/kg, ip measured after 4 hrs by UPLC-MS/MS analysis; type: ADME, organism-based; settings: read-out: Ct
B16-F10 [11] = experiment: Antitumor activity against mouse B16-F10 cells implanted in allogenic BALB/c mouse assessed as decrease in PD-L1 protein level at 50 mg/kg, ip by flow cytometric analysis; type: functional, organism-based

Vd [5]: 31 L/kg | concentration at 1 h [8]: 3470 ng/mL | concentration at 2 h [9]: 404 ng/mL | concentration at 4 h [10]: 143 ng/mL
Compound: Cc1c(COc2cc(OCc3cccc(C#N)c3)c(CN3CCCCC3C(=O)NCCNC(=O)CCCC[C@@H]3SC[C@@H]4NC(=O)N[C@@H]43)cc2Cl)cccc1-c1ccccc1 (some centres not stated)
Kd [1]: 43.7 nM | Kd [2]: 218 nM | Kd [3]: 438 nM | Activity (HepG2): 2.7% | EC50 [4]: 920 nM | Activity (B16-F10 [6]): 66.1% | Activity [7]: Non-Toxic | Activity (B16-F10 [11]): Active
